In patent US7022716B2, “Cyclic amine phenyl beta-3 adrenergic receptor agonists” (Wyeth, priority 2000, dated 2006):

Biological target: T1, human β3 adrenergic receptor (Homo sapiens, UniProt P13945)
T1 construct: Full length β3 AR clones (402 amino acids) containing the last 6 amino acids of hβ3-AR are prepared; expressed in transfected cells; host or cells: CHO (Chinese hamster ovary) cells
Experiment: cAMP (SPA) response in CHO cells transfected with human β3 adrenergic receptor
Assay type: cell-based
Design: key: fraction of maximal isoproterenol (10^-5 M) response
Conditions: maximal response relative to maximal response of isoproterenol at 10^-5 M
Procedure: Binding to the receptors was measured in Chinese Hamster ovary (CHO) cells that were transfected with adrenergic receptors.
The corresponding primer sequences are described in Mantzoros, C. […] The four fragments are ligated into a pUC 18 plasmid (Gibco-BRL) and sequenced.
CHO cells were grown in 24-well tissue culture plates in Dulbecco's Modified Eagle Media with 10% fetal bovine serum, MEM non-essential amino acids, Penicillin-Streptompycin and Geneticin. On the day of test procedure, growth medium was replaced with preincubation media (Dulbecco's Modified Eagle, Media) and incubated for 30 minutes at 37° C. […] Test compounds were tested over a concentration range of 10^−9 M to 10^−5 M for β3 cells and 10^−8 to 10^−4 M for β1 and β2 transfected cells. Isoproterenol (10^−5 M) was used as an internal standard for comparison of activity. Cells were incubated at 37° C. on a rocker for 30 min with the β3 cells and 15 min for β1 and β2 cells. Incubation was stopped with the addition of 0.2N HCl and neutralized with 2.5N NaOH. The plates, containing the cells and neutralized media, were stored at −20 degrees celsius until ready to test for cAMP using the SPA test kit (Amersham).
Data Analysis and Results: Data collected from the SPA test procedure were analyzed as percent of the maximal isoproterenol response at 10^−5 M. Activity curves were plotted using the SAS statistical and graphics software.

T1 sequence (P13945 whole entry): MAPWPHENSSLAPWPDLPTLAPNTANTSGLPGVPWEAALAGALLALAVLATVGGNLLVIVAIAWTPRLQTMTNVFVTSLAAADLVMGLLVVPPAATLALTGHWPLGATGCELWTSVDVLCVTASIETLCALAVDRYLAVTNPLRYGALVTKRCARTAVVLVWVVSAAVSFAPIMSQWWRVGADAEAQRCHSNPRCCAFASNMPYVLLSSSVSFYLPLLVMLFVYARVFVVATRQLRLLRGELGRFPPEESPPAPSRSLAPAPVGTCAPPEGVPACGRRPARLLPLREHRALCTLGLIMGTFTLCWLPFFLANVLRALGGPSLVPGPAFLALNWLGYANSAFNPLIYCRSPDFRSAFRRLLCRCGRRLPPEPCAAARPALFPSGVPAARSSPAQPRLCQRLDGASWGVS

Row | Structure (SMILES) | IA(β3)
1 | COc1ccc(S(=O)(=O)Nc2ccc(N3CCC(NC[C@H](O)COc4ccc(O)c5c4CCC(=O)N5)CC3)cc2)cc1OC [Example 303, N-{4-[4-({(2S)-2-Hydroxy-3-[(8-hydroxy-2-oxo-1,2,3,4-tetrahydro-5-quinolinyl)oxy]-propyl}amino)-1-piperidinyl]phenyl}-3,4-dimethoxybenzenesulfonamide] | 0.96
2 | CCCCCCCCS(=O)(=O)Nc1ccc(N2CCC(NC[C@H](O)COc3ccc(O)cc3)CC2)cc1 [Example 304, N-[4-(4-{[(2S)-2-Hydroxy-3-(4-hydroxyphenoxy)propyl]amino}-1-piperidinyl)phenyl]-1-octanesulfonamide] | 0.35
3 | CCCCCCNC(=O)Nc1ccc(S(=O)(=O)Nc2ccc(N3CCC(NC[C@H](O)COc4ccc(O)c5c4CCC(=O)N5)CC3)cc2)cc1 [Example 305, 4-{[(Hexylamino)carbonyl]amino}-N-{4-[4-({(2S)-2-hydroxy-3-[(8-hydroxy-2-oxo-1,2,3,4-tetrahydro-5-quinolinyl)oxy]propyl}amino)-1-piperidinyl]phenyl}benzenesulfonamide] | 1
4 | CCCCS(=O)(=O)Nc1ccc(N2CCC(NC[C@H](O)COc3ccc(O)c4c3CCC(=O)N4)CC2)cc1 [Example 306, N-{4-[4-({(2S)-2-Hydroxy-3-[(8-hydroxy-2-oxo-1,2,3,4-tetrahydro-5-quinolinyl)oxy]-propyl}amino)-1-piperidinyl]phenyl}-1-butanesulfonamide] | 1.1
5 | CC(=O)Nc1ccc(S(=O)(=O)Nc2ccc(N3CCC(NC[C@H](O)COc4ccc(O)c5c4CCC(=O)N5)CC3)cc2)cc1 [Example 307, N-[4-({4-[4-({(2S)-2-Hydroxy-3-[(8-hydroxy-2-oxo-1,2,3,4-tetrahydro-5-quinolin)oxy]propyl}amino)-1-piperidinyl]anilino}sulfonyl)phenyl]acetamide] | 1
6 | COc1ccc(S(=O)(=O)Nc2ccc(N3CCC(NC[C@H](O)COc4ccc(O)c(NS(C)(=O)=O)c4)CC3)cc2)cc1OC [Example 308, N-(4-{4-[((2S)-2-Hydroxy-3-{4-hydroxy-3-[(methylsulfonyl)amino]phenoxy}propyl)-amino]-1-piperidinyl}phenyl)-4-dimethoxybenzenesulfonamide] | 1.4
7 | CCCCS(=O)(=O)Nc1ccc(N2CCC(NC[C@H](O)COc3ccc(O)c(NS(C)(=O)=O)c3)CC2)cc1 [Example 309, N-(4-{4-[((2S)-2-Hydroxy-3-{4-hydroxy-3-[(methylsulfonyl)amino]phenoxy}-propyl)amino]-1-piperidinyl}phenyl)-1-butanesulfonamide] | 1
8 | CCCCCCNC(=O)Nc1ccc(S(=O)(=O)Nc2ccc(N3CCC(NC[C@H](O)COc4ccc(O)c(NS(C)(=O)=O)c4)CC3)cc2)cc1 [Example 310] | 1
9 | CCCCCCNC(=O)Nc1ccc(S(=O)(=O)Nc2ccc(N3CCC(NC[C@H](O)c4cccc(Cl)c4)CC3)cc2)cc1 [Example 311, N-[4-(4-{[(2R)-2-(3-Chlorophenyl)-2-hydroxyethyl]amino-}-piperidinyl)phenyl]-4-{[(hexylamino)carbonyl]amino}benzenesulfonamide] | 0.82
10 | CCOC(=O)Cc1ccc(S(=O)(=O)Nc2ccc(N3CCC(NC[C@H](O)COc4ccc(O)c(NS(C)(=O)=O)c4)CC3)cc2)cc1 [Example 312, Ethyl{4-[(4-}4-[((2S)-2hydroxy-3-{4-hydroxy-3-[(methylsulfonyl)amino]-phenoxy{propyl)amino]-1-piperidinyl}anilino)sulfonyl]phenyl}acetate] | 1.1
11 | COC(=O)COc1ccc(S(=O)(=O)Nc2ccc(N3CCC(NC[C@H](O)c4ccc(O)c(NS(C)(=O)=O)c4)CC3)cc2)cc1 [Example 313, Methyl{4-[(4-{4-[((2R)-2-hydroxy-2-{4-hydroxy-3-[(methylsulfonyl)amino]-phenyl}ethyl)amino]-1piperidinyl}anilino)sulfonyl]phenoxy}acetate] | 1
12 | CCCCS(=O)(=O)Nc1ccc(N2CCC(NC[C@H](O)COc3ccc(O)c(NS(=O)(=O)c4ccccc4)c3)CC2)cc1 [Example 315, N-[5-({(2S)-3-[(1-{4-[(Butylsulfonyl)amino]phenyl}-4-piperidinyl)amino]-2-hydroxypropyl}oxy)-2-hydroxyphenyl]benzenesulfonamide] | 1.2
13 | CS(=O)(=O)Nc1cc([C@@H](O)CNC2CCN(c3ccc(NS(=O)(=O)c4ccc(C(=O)O)cc4)cc3)CC2)ccc1O [Example 317, 4-[(4-{4-[((2R)-2-Hydroxy-2-{4-hydroxy-3-[(methylsulfonyl)amino]phenyl}ethyl)amino]-1-piperidinyl}anilino)sulfonyl]benzoic acid] | 0.97
14 | CCOC(=O)c1ccc(S(=O)(=O)Nc2ccc(N3CCC(NC[C@H](O)c4ccc(O)c(NS(C)(=O)=O)c4)CC3)cc2)cc1 [Example 318, Ethyl4-[(4-{4-[((2R)-2-hydroxy-2-{4-hydroxy-3-[(methylsulfonyl)amino]phenyl}ethyl)-amino]-1-piperidinyl}anilino)sulfonyl]benzoate] | 1
15 | COC(=O)COc1ccc(S(=O)(=O)Nc2ccc(N3CCC(NC[C@H](O)c4ccc(Cl)c(NS(C)(=O)=O)c4)CC3)cc2)cc1 [Example 319, Methyl{4-[(4-{4-[((2R)-2-{4-chloro-3-[(methylsulfonyl)amino]phenyl}-2-hydroxyethyl)amino]-1-piperidinyl}anilino)sulfonyl]phenoxy}acetate] | 0.79
16 | COC(=O)c1sccc1S(=O)(=O)Nc1ccc(N2CCC(NC[C@H](O)c3ccc(O)c(NS(C)(=O)=O)c3)CC2)cc1 [Example 320, Methyl3-[(4-{4-[((2R)-2-hydroxy-2-{4-hydroxy-3-[(methylsulfonyl)amino]-phenyl}ethyl)amino]-1-piperidinyl}anilino)sulfonyl]-2-thiophenecarboxylate] | 0.87
17 | CS(=O)(=O)Nc1cc([C@@H](O)CNC2CCN(c3ccc(NS(=O)(=O)c4ccsc4C(=O)O)cc3)CC2)ccc1O [Example 321, 3-[(4-{4-[((2R)-2-Hydroxy-2-{4-hydroxy-3-[(methylsulfonyl)amino]phenyl}ethyl)amino]-1-piperidinyl}anilino)sulfonyl]-2-thiophenecarboxylic acid] | 1.05
18 | CS(=O)(=O)Nc1cc([C@@H](O)CNC2CCN(c3ccc(NS(=O)(=O)CC(=O)OCc4ccccc4)cc3)CC2)ccc1O [Example 322, Benzyl[(4-{4-[((2R)-2-hydroxy-2-{4-hydroxy-3-[(methylsulfonyl)amino]phenyl}-ethyl)amino]-1-piperidinyl}anilino)sulfonyl]acetate] | 0.89
19 | CS(=O)(=O)Nc1cc([C@@H](O)CNC2CCN(c3ccc(NS(=O)(=O)CC(=O)O)cc3)CC2)ccc1O [Example 323, [(4-{4-[((2R)-2-Hydroxy-2-{4-hydroxy-3-[(methylsulfonyl)amino]phenyl}ethyl)amino]-1-piperidinyl}anilino)sulfonyl]acetic acid] | 0.92
20 | CCCCN(c1ccc(N2CCC(NC[C@H](O)c3ccc(O)c(NS(C)(=O)=O)c3)CC2)cc1)S(=O)(=O)CC(=O)OCc1ccccc1 [Example 324, Benzyl[(butyl-4-{4-[((2R)-2-hydroxy-2-{4-hydroxy-3-[(methylsulfonyl)amino]phenyl}-ethyl)amino]-1-piperidinyl)anilino)sulfonyl}acetate] | 0.9
21 | CS(=O)(=O)Nc1cc([C@@H](O)CNC2CCN(c3ccc(NS(=O)(=O)c4cccnc4)cc3)CC2)ccc1O [Example 326, N-(4-{4-[((2R)-2-Hydroxy-2-{4-hydroxy-3-[(methylsulfonyl)amino]phenyl}ethyl)amino]-1-piperidinyl}phenyl)-3-pyridinesulfonamide] | 1.3
22 | O=c1[nH]c2cccc(OC[C@@H](O)CNC3CCN(c4ccc(NS(=O)(=O)c5ccc(Cl)c(Cl)c5)cc4)CC3)c2[nH]1 [Example 327, 3,4-Dichloro-N-{4-[4-({(2S)-2-hydroxy-3-[(2-oxo-2,3-dihydro-1H-benzimidazol-4-yl)oxy]propyl}amino)-1-piperidinyl]phenyl}benzenesulfonamide] | 0.86
23 | O=c1[nH]c2cccc(OC[C@@H](O)CNC3CCN(c4ccc(NS(=O)(=O)c5ccc(C(F)(F)F)cc5)cc4)CC3)c2[nH]1 [Example 328] | 0.89
24 | O=c1[nH]c2cccc(OC[C@@H](O)CNC3CCN(c4ccc(NS(=O)(=O)c5ccc(OC(F)(F)F)cc5)cc4)CC3)c2[nH]1 [Example 329, N-{4-[4-({(2S)-2-Hydroxy-3-[(2-oxo-2,3-dihydro-1H-benzimidazol-4-yl)oxy]propyl}-amino)-1-piperidinyl]phenyl}-4-(trifluoromethoxy)benzenesulfonamide] | 0.9
25 | COc1ccc(S(=O)(=O)Nc2ccc(N3CCC(NC[C@H](O)COc4cccc5[nH]c(=O)[nH]c45)CC3)cc2)cc1 [Example 330, N-{4-[4-({(2S)-2-Hydroxy-3-[(2-oxo-2,3-dihydro-1H-benzimidazol-4-yl)oxy]propyl}-amino)-1-piperidinyl]phenyl}-4-methoxybenzenesulfonamide] | 0.98
